“Also recorded” adds a separate entry of the source. Read-outs that look alike come from different tables or passages of the source.
Experiments:
[1] = rcm bond
[2] = system: cerebellar explants; assay: Cerebellar microexplants exposed to glutamate and 3-nitropropionic acid; live neurons with neurites counted; assay type: cell-based, rat; settings: for numbers of cells having neurites: administered simultaneously with glutamate (1 mM) and 3-nitropropionic acid (0.5 mM), final concentrations 1-100 nM, postnatal day 8 Wistar rat cerebellar microexplants; for recovery from / prevention of glutamate-induced neurotoxicity: compound applied simultaneously, 1-100 nM
Method: To determine the effects of the compounds of the invention on neuronal cells in vitro, a series of studies was carried out using cerebellar explants from […]. In vitro systems are suitable for studying neuronal proliferation, neurite growth, formation of nerve bundles and effects of toxins on neural cells, effects that parallel effects observed in vivo. Thus, results of studies using in vitro cerebellar explants are predictive of effects of interventions in vivo.
In a first series of studies, effects of glutamate on cerebellar explants were determined. At physiological concentrations, glutamate is a neurotransmitter in the CNS of mammals, including humans. However, at sufficiently high concentrations, glutamate is neurotoxic, resulting in neuronal cell death. Because glutamate is a naturally occurring neurotransmitter in the CNS of mammals, including humans, and because glutamate neurotoxicity is recognized in the art as reflective of neurotoxicity in general, and including cell death and degeneration, it is a valuable tool useful for identifying and characterizing agents effective in treatment of neurodegeneration and neural cell death.
Cover slips were placed into a large Petri dish and washed in 70% alcohol for 5 minutes, then washed with Millipore H2O. The cover slips were air dried, and coated with Poly-D-Lysine (1 mg/ml stock solution in PBS, 90-100 μl) for 2 hours at 34° C.
Postnatal day 8 Wistar rats were used for the study. The rats were sacrificed and placed in ice for 1 minute, decapitated and the cerebellum removed and placed on ice. Cerebellum tissue was placed in 1 ml of 0.65% glucose-supplemented PBS (10 μl 65% stock D (+)glucose/1 ml PBS) in a large Petri dish, chopped up into smaller sections and triturated with a 1 ml insulin syringe via a 23 G (0.4 mm) needle, and then squirted back into the glucose solution in the large Petri dish. The tissue was sieved through (125 μm pore size gauze) and centrifuged (2 minutes at 60 g) twice to exchange the medium into serum-free BSA-supplemented START V medium (Biochrom, Germany). The second centrifugation step was done with 1 ml of START V medium. The microexplants were reconstituted into 500 μl of START V medium and put on ice.
Two hours after PDL-coating, the slides were washed with Millipore H2O and air dried. Each slide was placed into a small Petri dish (diameter: 35 mm) and 40 μl of START V/cell suspension was added. The tissue was incubated for 2 hours at 34° C. (settlement period). START V-medium (1 ml) was then added to the Petri dish and cultivated at 34° C. in the presence of 5% CO2 in air at 100% humidity for 48 hours.
For the study, certain explant cultures were exposed to vehicle (PBS) only. In the first study (Study 1) 10 μl of toxin 1 (L-glutamate-100 mM in Millipore water; final concentration: 1 mM) and 10 μl of toxin 2 (3-nitropropionic acid-50 mM- pH 7- in Millipore water, final concentration: 0.5 mM) was applied simultaneously with the compounds to be tested (10 mM stock solution prepared in PBS and diluted to final concentrations between 1-100 nM). […]
Neurons in the explants were then evaluated for morphology (presence of neurites) and counted as live cells per microscopic field. Four fields displaying highest cell density were counted per cover slip and the data presented as mean±standard error of the mean (SEM); n=4 each. Statistical significance was evaluated by using the non-paired Student's t-test.

[3] = system: rats exposed to hypoxic-ischemic injury (HI); assay: Hypoxic-ischemic injury (modified Levine model), histological tissue damage score; assay type: in vivo, rat; settings: 100 pM icv, 20 μl over 20 minutes, 2 hours after hypoxic-ischemic insult; histology 5 days after injury; adult male Wistar rats; compared to vehicle treated group, p<0.001
Method: To determine whether compounds of the invention might prevent neuronal injury in response to stroke, cardiac arterial bypass graft surgery (CABG) or other hypoxic insults, a series of studies were carried out in rats that had been exposed to hypoxic-ischemic injury (HI). Adult rats (Wistar, 280-310 g, male) were used. The modified Levine model preparation and experimental procedures were used (Rice et al, 1981, Ann. Neurol.: 9: 131-141; Guan et al J., 1993, Cereb. Blood Flow Metab.: 13(4): 609-16). These procedures in brief, consist of an HI injury induced by unilateral carotid artery ligation followed by inhalational asphyxia in the animals with an implanted lateral ventricular cannula. A guide cannula was stereotaxically placed on the top of the dura 1.5 mm to the right of the mid-line and 7.5 mm anterior to the interaural zero plane under halothane anaesthesia. […]
Coronal sections 8 μm in thickness were cut from the striatum, cerebral cortex and hippocampus and were stained with thionin and acid fuchsin. The histological outcome was assessed at three levels: (1) the mid level of the striatum, (2) where the completed hippocampus first appeared and (3) the level where the ventral horn of the hippocampus just appears. The severity of tissue damage was scored in the striatum, cortex and the CA1-2, CA3, CA4 and dentate gyrus of the hippocampus. […]

## CC(C)(C)OC(=O)[C@@H]1CC[C@@H]2CC=CCN(C(=O)OCc3ccccc3)CC(=O)N21
[1]; from C=CC[C@H]1CC[C@@H](C(=O)OC(C)(C)C)N1C(=O)CN(CC=C)C(=O)OCc1ccccc1, Grubbs I (bis(tricyclohexylphosphine)benzylideneruthenium dichloride), dichloromethane, 4.03 mM, 40.0 °C, 48.0 h
  ring closure, yield of all isomers: 46%

## CC(C)(C)OC(=O)[C@@H]1CC[C@H]2CC=CCN(C(=O)OCc3ccccc3)CC(=O)N21
[1]; from C=CC[C@@H]1CC[C@@H](C(=O)OC(C)(C)C)N1C(=O)CN(CC=C)C(=O)OCc1ccccc1, bis(tricyclohexylphosphine)benzylidineruthenium dichloride (Grubbs I), dichloromethane, 4.1 mM, 40.0 °C, 48.0 h
  ring closure, yield of all isomers: 42%

## O=C(O)[C@@H]1CCCCNCC(=O)N2CCC[C@H]2C(=O)N[C@H](C(=O)O)C1
[1]; from C=CC[C@H](C[C@H](NC(=O)[C@@H]1CCCN1C(=O)CN(CC=C)C(=O)OCc1ccccc1)C(=O)OCc1ccccc1)C(=O)OCc1ccccc1, Grubbs II generated in situ (bis(tricyclohexylphosphine)benzylideneruthenium dichloride + SIMes.HBF4/KOtBu), benzene, 2.27 mM, 45.0 °C, 65.0 h, 2 steps
  ring closure, yield of all isomers: 58%

## N[C@@H](CCC(=O)O)C(=O)O [Glutamate, L-glutamate, reference compound]
[2]; glutamate 1 mM, compared to vehicle-treated controls
  loss of cerebellar neurons having neurites: ~80%

## N[C@H]1CCCC[C@@H]2CC[C@@H](C(=O)N[C@@H](CCC(=O)O)C(=O)O)N2C1=O.O=C(O)C(F)(F)F [compound 48, (2S, 3′S, 8′R, 11′S) 2-{[(3′-Amino-1′-aza-2′-oxobicyclo[6.3.0]-undecyl)-11′-carbonyl]amino}-1,5-pentanedioic acid trifluoroacetate salt]
[2]
  numbers of cells having neurites: significantly increased the numbers of cells having neurites in a dose-dependent manner
[2]; glutamate 1 mM, trifluoroacetate salt
  recovery from / prevention of glutamate-induced neurotoxicity: significant recovery; also recorded: prevented glutamate-induced neurotoxicity

## O=C(O)C(F)(F)F.O=C(O)CC[C@H](NC(=O)[C@@H]1CC[C@@H]2CCCCNCC(=O)N21)C(=O)O [compound 68, (2S, 9′S, 12′S)-2-{[(1′,4′-Diaza-2′-oxobicyclo[7.3.0]dodecyl)-12′-carbonyl]amino}-1,5-pentanedioic acid trifluoroacetate]
[2]
  numbers of cells having neurites: significantly increased the numbers of cells having neurites in a dose-dependent manner
[2]; glutamate 1 mM
  recovery from / prevention of glutamate-induced neurotoxicity: significant recovery; also recorded: prevented glutamate-induced neurotoxicity
[3]
  tissue damage (damage score) in striatum, cortex and hippocampus: significantly reduced the tissue damage in each brain region examined

Reference: patent US8013170B2, “Substituted pyrrolo[1,2-d][1,4]-diazonines and treatment of brain damage” (priority 2003, dated 2011)
